For three compounds, remaining activity results are on record in patent publication US20240246942A1, “KINASE INHIBITORS FOR THE TREATMENT OF NEURODEGENERATIVE DISEASES” (priority 2020, published 2024).

Holding throughout (assay): biochemical
Test [1] addresses T1, panel of 374 wild-type kinases (Homo sapiens, UniProt Q16584).
T1 construct: purchased Reaction Biology Corporation
As to conditions: read-out: % Enzyme Activity (relative to DMSO controls), MLK3/MAP3K11.

Test [2] has as its target T2, panel of 374 wild-type kinases (Homo sapiens, UniProt P42679).
T2 construct: purchased Reaction Biology Corporation
T2 sequence (P42679 1-507): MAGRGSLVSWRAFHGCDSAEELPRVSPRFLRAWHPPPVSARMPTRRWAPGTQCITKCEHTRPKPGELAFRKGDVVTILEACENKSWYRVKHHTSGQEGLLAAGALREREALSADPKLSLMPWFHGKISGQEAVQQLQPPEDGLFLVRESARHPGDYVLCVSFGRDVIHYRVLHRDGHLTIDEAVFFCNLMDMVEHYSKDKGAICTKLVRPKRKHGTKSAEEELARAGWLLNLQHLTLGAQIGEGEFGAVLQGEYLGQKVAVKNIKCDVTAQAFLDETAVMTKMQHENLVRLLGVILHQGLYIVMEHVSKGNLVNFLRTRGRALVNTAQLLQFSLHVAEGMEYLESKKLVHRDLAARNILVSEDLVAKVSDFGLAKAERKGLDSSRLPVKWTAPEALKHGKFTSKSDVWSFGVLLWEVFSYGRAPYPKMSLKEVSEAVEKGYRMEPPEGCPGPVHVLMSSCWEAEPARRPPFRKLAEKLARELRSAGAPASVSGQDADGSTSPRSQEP
The conditions noted are these: read-out: % Enzyme Activity (relative to DMSO controls), CTK/MATK.

Test [3] deals with T3, panel of 374 wild-type kinases (Homo sapiens, UniProt P07333).
T3 construct: purchased Reaction Biology Corporation
T3 sequence (P07333 20-972): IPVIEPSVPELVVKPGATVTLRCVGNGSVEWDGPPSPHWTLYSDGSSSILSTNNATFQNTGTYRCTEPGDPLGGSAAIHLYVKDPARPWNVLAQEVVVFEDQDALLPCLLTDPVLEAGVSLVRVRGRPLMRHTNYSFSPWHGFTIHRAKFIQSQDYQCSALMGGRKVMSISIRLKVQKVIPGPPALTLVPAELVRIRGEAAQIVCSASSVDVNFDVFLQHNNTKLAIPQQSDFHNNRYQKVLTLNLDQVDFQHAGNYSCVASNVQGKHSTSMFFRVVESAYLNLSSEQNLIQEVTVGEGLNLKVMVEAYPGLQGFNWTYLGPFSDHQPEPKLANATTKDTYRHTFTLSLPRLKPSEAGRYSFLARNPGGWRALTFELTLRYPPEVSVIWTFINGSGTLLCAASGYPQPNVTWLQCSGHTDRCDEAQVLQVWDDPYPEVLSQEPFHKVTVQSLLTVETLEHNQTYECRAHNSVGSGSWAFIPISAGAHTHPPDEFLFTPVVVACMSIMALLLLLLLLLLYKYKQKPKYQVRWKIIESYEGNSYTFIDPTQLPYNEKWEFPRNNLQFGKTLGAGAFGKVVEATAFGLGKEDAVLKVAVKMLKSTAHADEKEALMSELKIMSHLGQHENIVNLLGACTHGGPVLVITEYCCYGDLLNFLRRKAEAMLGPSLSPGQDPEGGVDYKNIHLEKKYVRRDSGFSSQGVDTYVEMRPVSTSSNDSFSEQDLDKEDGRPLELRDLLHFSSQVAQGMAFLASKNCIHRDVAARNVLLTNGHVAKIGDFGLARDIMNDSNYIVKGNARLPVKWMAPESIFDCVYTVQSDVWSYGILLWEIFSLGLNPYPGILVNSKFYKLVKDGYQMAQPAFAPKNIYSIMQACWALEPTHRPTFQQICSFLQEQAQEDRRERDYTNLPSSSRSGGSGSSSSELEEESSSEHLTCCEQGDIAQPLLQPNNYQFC
The conditions noted are these: read-out: % Enzyme Activity (relative to DMSO controls), FMS.

In test [4] the target is T4, panel of 374 wild-type kinases (Homo sapiens, UniProt P17612).
T4 construct: purchased Reaction Biology Corporation
As to conditions: read-out: % Enzyme Activity (relative to DMSO controls), kinase PKA.

Test [5] concerns the target T5, panel of 374 wild-type kinases (Homo sapiens, UniProt P34947).
T5 construct: purchased Reaction Biology Corporation
The conditions noted are these: read-out: % Enzyme Activity (relative to DMSO controls), GRK5.

The target in test [6] is T6, panel of 374 wild-type kinases (Homo sapiens, UniProt O94806).
T6 construct: purchased Reaction Biology Corporation
T6 sequence (O94806 1-890): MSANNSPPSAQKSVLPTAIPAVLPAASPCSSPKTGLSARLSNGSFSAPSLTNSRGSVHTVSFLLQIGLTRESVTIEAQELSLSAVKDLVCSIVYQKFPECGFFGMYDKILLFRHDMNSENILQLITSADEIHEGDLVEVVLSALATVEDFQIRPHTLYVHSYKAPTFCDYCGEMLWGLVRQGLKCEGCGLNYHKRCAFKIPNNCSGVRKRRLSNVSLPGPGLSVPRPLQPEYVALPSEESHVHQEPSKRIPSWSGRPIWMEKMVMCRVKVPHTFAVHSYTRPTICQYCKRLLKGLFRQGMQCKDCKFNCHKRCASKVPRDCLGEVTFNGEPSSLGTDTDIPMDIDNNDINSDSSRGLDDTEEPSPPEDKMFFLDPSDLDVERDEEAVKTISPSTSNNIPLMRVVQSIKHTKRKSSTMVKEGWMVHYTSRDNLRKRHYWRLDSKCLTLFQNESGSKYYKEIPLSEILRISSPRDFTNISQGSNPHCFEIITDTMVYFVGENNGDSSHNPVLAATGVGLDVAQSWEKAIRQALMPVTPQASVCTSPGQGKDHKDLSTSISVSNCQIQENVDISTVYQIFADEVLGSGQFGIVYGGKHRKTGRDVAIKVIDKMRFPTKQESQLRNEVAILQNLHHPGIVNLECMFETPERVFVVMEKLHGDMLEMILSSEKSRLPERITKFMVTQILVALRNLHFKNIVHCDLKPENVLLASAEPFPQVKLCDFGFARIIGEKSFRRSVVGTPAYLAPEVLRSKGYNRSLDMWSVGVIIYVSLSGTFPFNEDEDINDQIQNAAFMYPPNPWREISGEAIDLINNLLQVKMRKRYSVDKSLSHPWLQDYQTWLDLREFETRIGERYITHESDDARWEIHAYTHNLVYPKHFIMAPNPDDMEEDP
As to conditions: read-out: % Enzyme Activity (relative to DMSO controls), kinase PKCnu/PRKD3.

Test [7] addresses T7, panel of 374 wild-type kinases (Homo sapiens, UniProt Q15759).
T7 construct: purchased Reaction Biology Corporation
As to conditions: read-out: % Enzyme Activity (relative to DMSO controls), P38b/MAPK11.

Test [8] concerns the target T8, panel of 374 wild-type kinases (Homo sapiens, UniProt O43781).
T8 construct: purchased Reaction Biology Corporation
T8 sequence (O43781 1-588): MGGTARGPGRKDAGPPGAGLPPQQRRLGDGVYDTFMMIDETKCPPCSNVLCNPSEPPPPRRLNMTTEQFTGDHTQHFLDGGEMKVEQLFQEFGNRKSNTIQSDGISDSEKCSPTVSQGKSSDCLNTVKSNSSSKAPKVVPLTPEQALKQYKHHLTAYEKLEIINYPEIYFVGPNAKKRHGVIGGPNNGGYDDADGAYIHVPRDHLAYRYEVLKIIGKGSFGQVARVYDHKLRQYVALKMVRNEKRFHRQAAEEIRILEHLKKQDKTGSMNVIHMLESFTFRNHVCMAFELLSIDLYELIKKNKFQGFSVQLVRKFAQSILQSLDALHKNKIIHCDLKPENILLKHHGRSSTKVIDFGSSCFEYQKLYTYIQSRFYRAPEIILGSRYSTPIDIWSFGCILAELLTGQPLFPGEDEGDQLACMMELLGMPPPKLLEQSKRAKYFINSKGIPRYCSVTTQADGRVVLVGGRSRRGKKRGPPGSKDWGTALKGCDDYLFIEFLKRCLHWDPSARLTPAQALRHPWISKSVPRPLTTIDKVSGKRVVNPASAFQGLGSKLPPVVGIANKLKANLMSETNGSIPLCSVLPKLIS
As to conditions: read-out: % Enzyme Activity (relative to DMSO controls), DYRK3.

Test [9] addresses T9, panel of 374 wild-type kinases (Homo sapiens, UniProt Q86Y07).
T9 construct: purchased Reaction Biology Corporation
The conditions noted are these: read-out: % Enzyme Activity (relative to DMSO controls), kinase VRK2.

The target of test [10] is T10, panel of 374 wild-type kinases (Homo sapiens, UniProt Q05655).
T10 construct: purchased Reaction Biology Corporation
T10 sequence (Q05655 whole entry): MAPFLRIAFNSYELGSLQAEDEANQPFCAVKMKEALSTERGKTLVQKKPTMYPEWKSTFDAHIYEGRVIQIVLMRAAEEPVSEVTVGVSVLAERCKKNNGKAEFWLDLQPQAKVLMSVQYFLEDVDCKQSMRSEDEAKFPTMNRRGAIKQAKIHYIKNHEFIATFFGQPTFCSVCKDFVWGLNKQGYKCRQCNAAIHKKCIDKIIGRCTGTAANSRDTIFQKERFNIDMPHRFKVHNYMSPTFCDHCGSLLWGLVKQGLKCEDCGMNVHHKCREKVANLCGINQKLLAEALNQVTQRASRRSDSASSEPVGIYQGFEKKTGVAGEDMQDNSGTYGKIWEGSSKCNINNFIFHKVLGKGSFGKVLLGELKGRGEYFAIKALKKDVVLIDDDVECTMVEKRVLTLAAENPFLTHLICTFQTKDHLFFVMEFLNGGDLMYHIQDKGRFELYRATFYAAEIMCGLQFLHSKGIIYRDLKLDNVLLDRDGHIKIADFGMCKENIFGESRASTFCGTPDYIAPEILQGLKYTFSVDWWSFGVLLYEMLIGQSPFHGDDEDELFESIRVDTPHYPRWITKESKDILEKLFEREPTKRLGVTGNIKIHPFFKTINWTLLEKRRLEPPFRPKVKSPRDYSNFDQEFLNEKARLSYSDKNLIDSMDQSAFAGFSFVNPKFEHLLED
As to conditions: read-out: % Enzyme Activity (relative to DMSO controls), kinase PKCd.

In test [11] the target is T11, panel of 374 wild-type kinases (Homo sapiens, UniProt P53671).
T11 construct: purchased Reaction Biology Corporation
T11 sequence (P53671 whole entry): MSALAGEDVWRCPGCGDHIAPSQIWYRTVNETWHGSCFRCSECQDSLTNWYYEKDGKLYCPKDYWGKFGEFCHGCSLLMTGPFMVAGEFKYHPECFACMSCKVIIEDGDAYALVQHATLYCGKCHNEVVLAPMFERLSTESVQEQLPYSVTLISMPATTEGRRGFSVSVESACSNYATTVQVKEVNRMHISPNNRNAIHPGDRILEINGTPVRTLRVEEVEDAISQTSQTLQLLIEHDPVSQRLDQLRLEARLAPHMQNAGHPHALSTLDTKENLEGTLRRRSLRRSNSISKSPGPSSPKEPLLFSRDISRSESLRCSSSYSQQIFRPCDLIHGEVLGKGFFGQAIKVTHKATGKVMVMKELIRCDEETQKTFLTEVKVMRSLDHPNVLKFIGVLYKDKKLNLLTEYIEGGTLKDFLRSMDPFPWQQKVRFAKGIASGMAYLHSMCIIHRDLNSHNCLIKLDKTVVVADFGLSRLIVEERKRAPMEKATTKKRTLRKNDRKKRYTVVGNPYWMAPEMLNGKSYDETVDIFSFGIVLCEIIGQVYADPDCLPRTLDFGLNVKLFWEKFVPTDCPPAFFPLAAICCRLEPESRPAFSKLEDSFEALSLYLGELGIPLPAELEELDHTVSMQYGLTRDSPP
As to conditions: read-out: % Enzyme Activity (relative to DMSO controls), LIMK2.

SMILES strings stand for the structures.

T7 sequence (Q15759 whole entry): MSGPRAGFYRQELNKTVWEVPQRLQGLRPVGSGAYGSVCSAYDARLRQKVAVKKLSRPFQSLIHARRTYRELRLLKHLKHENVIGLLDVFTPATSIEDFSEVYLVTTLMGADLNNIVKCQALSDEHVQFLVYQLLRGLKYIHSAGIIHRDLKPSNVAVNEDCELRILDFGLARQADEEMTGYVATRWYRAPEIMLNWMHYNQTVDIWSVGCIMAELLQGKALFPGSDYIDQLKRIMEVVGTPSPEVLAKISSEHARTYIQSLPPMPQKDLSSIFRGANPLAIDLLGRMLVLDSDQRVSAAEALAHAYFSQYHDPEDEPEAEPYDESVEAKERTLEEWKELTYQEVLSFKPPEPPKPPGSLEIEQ
T5 sequence (P34947 whole entry): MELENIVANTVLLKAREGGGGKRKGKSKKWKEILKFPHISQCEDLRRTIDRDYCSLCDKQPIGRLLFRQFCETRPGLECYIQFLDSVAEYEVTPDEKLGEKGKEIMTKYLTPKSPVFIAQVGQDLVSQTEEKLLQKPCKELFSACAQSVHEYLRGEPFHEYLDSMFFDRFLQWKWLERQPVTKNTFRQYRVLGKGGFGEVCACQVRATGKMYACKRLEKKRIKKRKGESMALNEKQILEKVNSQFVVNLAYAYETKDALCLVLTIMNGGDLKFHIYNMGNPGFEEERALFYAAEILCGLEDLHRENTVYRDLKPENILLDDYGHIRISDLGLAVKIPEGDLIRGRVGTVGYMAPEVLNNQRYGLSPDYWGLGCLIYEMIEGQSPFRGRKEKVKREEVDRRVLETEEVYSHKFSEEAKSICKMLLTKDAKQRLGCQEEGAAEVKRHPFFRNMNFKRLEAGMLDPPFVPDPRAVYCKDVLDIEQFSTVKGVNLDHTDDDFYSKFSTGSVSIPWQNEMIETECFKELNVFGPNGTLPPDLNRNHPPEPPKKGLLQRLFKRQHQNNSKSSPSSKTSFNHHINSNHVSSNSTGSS
T9 sequence (Q86Y07 whole entry): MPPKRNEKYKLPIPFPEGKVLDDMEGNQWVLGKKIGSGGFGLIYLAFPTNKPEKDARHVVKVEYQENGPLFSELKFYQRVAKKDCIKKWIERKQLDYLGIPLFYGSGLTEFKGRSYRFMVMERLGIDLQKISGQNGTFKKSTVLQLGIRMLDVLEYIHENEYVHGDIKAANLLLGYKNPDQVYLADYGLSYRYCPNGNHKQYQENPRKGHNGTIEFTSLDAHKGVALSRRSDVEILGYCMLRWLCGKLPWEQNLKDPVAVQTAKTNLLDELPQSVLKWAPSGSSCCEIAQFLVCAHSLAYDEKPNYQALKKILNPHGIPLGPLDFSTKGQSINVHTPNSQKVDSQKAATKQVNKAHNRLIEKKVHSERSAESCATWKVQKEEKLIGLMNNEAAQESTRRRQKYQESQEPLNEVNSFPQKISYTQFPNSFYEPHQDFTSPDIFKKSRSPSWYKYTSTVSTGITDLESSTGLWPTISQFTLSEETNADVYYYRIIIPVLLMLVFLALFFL
T1 sequence (Q16584 whole entry): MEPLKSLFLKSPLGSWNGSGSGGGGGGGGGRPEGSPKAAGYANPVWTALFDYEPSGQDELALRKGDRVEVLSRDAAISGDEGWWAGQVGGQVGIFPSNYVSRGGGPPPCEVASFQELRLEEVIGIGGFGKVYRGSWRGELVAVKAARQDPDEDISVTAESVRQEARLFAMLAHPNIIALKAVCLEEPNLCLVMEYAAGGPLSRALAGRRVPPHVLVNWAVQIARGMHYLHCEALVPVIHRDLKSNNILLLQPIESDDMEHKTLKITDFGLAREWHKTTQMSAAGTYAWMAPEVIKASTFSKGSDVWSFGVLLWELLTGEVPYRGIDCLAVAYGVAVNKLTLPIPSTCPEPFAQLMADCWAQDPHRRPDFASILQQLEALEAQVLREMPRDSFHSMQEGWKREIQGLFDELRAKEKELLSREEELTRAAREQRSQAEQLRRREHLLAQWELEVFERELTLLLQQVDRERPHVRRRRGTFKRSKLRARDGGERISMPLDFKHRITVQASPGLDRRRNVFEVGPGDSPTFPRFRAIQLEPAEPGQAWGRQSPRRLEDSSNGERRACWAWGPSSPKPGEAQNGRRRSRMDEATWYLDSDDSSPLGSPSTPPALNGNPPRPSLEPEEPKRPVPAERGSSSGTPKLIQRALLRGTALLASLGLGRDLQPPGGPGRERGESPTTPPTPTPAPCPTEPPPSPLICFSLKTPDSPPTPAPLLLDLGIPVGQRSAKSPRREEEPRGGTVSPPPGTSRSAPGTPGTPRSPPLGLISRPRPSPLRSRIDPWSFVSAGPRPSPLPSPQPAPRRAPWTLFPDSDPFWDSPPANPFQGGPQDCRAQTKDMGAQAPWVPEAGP

With `O=C(Nc1cnn(-c2csc(C(=O)NC3COC3)c2)c1)Nc1ccccc1Cl` [Compound 17, 4-(4-(3-(2-chlorophenyl)ureido)-1H-pyrazol-1-yl)-N-(oxetan-3-yl)thiophene-2-carboxamide], the remaining activity at 5 µM in test [1] stood at 93.5%; in test [2] it was 99.7%; in [3], 105%; in [4], 99.8%; in [5] it was 98%; in test [6], 104%. Further, the remaining activity at 5 µM was 101% in test [7]; 93.3% in [8]; 103% in test [9]; 112% in test [10]; 96.8% in test [11].
Consider `O=C(Nc1cnn(-c2csc(C(=O)NC3COC3)c2)c1)Nc1c(F)cccc1Cl` [Compound 25, 4-(4-(3-(2-chloro-6-fluorophenyl)ureido)-1H-pyrazol-1-yl)-N-(oxetan-3-yl)thiophene-2-carboxamide], for which the remaining activity at 5 µM in test [1] stood at 84.7%; in test [2], 100%; in test [3], 98.9%; in test [4] it was 108%; in test [5], 102%; in test [6], 105%. Moreover, the remaining activity at 5 µM in [7] is 91.7%; in test [8] it was 99.2%; in test [9] it was 102%; in test [10], 101%; in test [11], 94%.
On to `Cc1sc(C(=O)NC2COC2)cc1-n1cc(NC(=O)Nc2c(F)cccc2Cl)cn1` [Compound 27, 4-(4-(3-(2-chloro-6-fluorophenyl)ureido)-1H-pyrazol-1-yl)-5-methyl-N-(oxetan-3-yl)thiophene-2-carboxamide], for which the remaining activity at 10 µM in [1] (10 uM) was found to be 90.7%; in test [2] (10 uM), 97.8%; in test [3] (10 uM), 103%; in [4] (10 uM) it was 94.5%; in [5] (10 uM), 113%; in test [6] (10 uM), 105%. The remaining activity at 10 µM in test [7] (10 uM) was found to be 94.3%; in [8] (10 uM) it was 101%; in [9] (10 uM), 102%; in [10] (10 uM), 98%; in test [11] (10 uM), 113%.
